Measurements taken from article PMC11371747, “The role of l-leucovorin uptake and metabolism in the modulation of 5-fluorouracil efficacy and antifolate toxicity” (Frontiers in Pharmacology, 2024).

Tests used:
[1] = biological target: T1, folate receptor α (FRα) (Homo sapiens, UniProt P15328); test: Intact cell competitive binding assay, displacement of [3H]-folic acid from FRα in KB cells
T1 construct: endogenous in cells; host or cells: KB cells (FRα++)
Method: (§1) In order to determine whether the LV isomers were substrates for either folate receptor α (FRα), RFC and/or PCFT, we used model systems with established overexpression of these receptors or transporters ([Westerhof et al., 1995a]; [Westerhof et al., 1995b]; [Lasry et al., 2008]; [Van der Heijden et al., 2009]).
For FRα we used KB cells ([Westerhof et al., 1995b]). An intact cell binding assay for competitive binding was performed as described previously ([Westerhof et al., 1995a]). Briefly, cells were washed with Hanks balanced salt solution and 6 mM glucose (HBSS, pH 7.4), suspended in 1 mL of this solution (1*10^6 for KB cells) and incubated at 4°C for 15 min with 100 pmol [^3H]-folic acid [(^3H)-FA], in the presence and absence of unlabelled folic acid or LV stereoisomers. Cells were collected by centrifugation and analysed for radioactivity. Relative affinities for FRα were defined as the inverse ratio of compound to displace 50% of radioactive folic acid from FRα. The relative affinity of folic acid was set at 1.

[2] = biological target: T2, reduced folate carrier (RFC/SLC19A1) (Homo sapiens, UniProt P41440); test: Inhibition of RFC-mediated [3H]-l-LV influx in CEM-7A cells; assay type: cell-based; conditions: 5 µM [3H]-l-LV, 2 min, 37°C, read-out: Concentration for 50% inhibition of [3H]-l-LV influx (RFC)
T2 construct: CEM-7A cells, which display 30-fold RFC overexpression relative to wild-type CCRF-CEM cells; endogenous in cells; host or cells: CEM-7A (CCRF-CEM variant, RFC+++ 30-fold)
T2 sequence (P41440 1-591): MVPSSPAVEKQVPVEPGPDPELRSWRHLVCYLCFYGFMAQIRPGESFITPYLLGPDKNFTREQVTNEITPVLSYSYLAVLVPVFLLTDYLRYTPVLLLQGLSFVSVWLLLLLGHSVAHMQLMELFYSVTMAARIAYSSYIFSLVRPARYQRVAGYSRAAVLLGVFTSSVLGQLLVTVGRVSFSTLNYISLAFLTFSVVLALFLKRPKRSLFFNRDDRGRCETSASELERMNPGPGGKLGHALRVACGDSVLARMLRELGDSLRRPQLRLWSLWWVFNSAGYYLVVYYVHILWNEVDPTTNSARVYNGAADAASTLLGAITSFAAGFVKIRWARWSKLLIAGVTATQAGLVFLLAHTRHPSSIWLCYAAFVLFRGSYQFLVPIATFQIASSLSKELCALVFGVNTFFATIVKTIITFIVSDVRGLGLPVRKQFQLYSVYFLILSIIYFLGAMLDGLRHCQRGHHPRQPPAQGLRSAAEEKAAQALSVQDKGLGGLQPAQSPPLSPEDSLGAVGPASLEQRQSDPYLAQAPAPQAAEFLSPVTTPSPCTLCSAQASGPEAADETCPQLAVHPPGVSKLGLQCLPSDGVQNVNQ
Method: as §1
CEM-7A cells (2 × 10^6) were suspended in 1 mL HBSS and the assay was initiated by addition of 25 μL 200 μM [^3H]-l-LV; 5,000 pmol (i.e., 5 μM final concentration). Incubations proceeded for 2 min at 37°C in the absence and presence of increasing amounts of unlabelled LV/antifolate drug. Blanks consisted of a separate incubation at 4°C or incubation with 100-fold molar excess of unlabelled l-LV. [^3H]-l-LV influx was terminated by adding 9 mL ice-cold HBSS, centrifugation and an additional wash of the cells with 10 mL ice-cold buffer. Cell pellets were then assessed for radioactivity. Relative affinities for RFC are expressed as the concentration of unlabelled drug necessary to inhibit [^3H]-l-LV uptake by 50%.

[3] = biological target: T3, human PCFT (Homo sapiens, UniProt Q96NT5); test: Inhibition of PCFT-mediated [3H]-l-LV influx in CHO/C5-PCFT cells; assay type: cell-based, Chinese hamster (CHO cells); conditions: CHO/C5/PCFT cells, 2.5 µM [3H]-l-LV, pH 5.5, 3 min; read-out: Concentration for 50% inhibition of PCFT-mediated [3H]-l-LV influx
T3 construct: expressed in transfected cells; host or cells: CHO/C5 (RFC-deficient Chinese hamster ovary cells, no PCFT)
T3 sequence (Q96NT5 1-459): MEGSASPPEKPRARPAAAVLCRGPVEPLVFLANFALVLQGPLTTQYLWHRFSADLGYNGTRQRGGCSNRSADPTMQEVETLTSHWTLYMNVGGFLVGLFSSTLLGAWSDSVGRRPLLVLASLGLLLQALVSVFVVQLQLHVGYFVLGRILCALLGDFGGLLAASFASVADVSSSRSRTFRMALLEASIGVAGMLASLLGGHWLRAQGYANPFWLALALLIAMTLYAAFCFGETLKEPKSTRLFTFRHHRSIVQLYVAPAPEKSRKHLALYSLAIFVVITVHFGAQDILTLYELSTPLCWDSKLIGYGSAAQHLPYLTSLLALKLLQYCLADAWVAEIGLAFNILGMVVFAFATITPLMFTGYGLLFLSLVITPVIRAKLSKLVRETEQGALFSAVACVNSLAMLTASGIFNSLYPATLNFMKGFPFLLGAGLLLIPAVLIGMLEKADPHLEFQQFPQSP
Method: as §1
The competitive inhibition by 2.5 μM [^3H]-l-LV influx of PCFT was measured essentially as described for the RFC assay, except that the incubation time was 3 min, at pH 5.5 (the optimal pH for PCFT) and pH 7.4 with increasing amounts of unlabelled LV stereoisomers/antifolate drug. For PCFT too, relative affinities were expressed as the concentration of unlabelled drug necessary to inhibit 50% of [^3H]-l-LV influx.

[4] = test system: unselected cell lines with a different pathology; parameters: method as in Van der Wilt and Peters, 1994; conditions: large panel of unselected cell lines with a different pathology; ref Van der Wilt and Peters, 1994; cited from earlier work

T1 sequence (P15328 25-257): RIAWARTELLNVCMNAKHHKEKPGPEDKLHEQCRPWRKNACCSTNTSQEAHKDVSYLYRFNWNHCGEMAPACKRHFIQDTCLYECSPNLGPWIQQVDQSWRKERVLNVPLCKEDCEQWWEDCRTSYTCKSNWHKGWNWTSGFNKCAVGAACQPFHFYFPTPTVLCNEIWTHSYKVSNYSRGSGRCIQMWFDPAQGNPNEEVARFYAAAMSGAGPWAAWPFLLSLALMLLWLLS

Nc1nc2c(c(=O)[nH]1)N(C=O)C(CNc1ccc(C(=O)N[C@@H](CCC(=O)O)C(=O)O)cc1)CN2 (mixture of isomers) [dl-LV]
50% [3H]-FA displacement, fold lower concentration than l-LV [1]: 2 fold | Relative affinity for FRα ([1]; 100 pmol [3H]-FA, inverse ratio of amount of drug displacing 50% of [3H]-FA, FA set to 1): 0.041 | IC50 [2]: 7.3 µM | IC50 [3]: 4.5 µM | Enhancement of the effect of 5FU by dl-LV [4]: about 2 fold
